From patent US9770026B2, “Substituted pyrimidine compound and uses thereof” (Shenyang Sinochem Agrochemicals R&D Co., Ltd., priority 2012, dated 2017)

Key:
[1] = system: Green peach aphids (Myzus Persicae Sulzer); assay: bioactivity test against green peach aphid, airbrush foliar spray; format: in vivo
Procedure, shortened: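 Aphids (15-30 per cabbage leaf disc) on moist filter paper were airbrush-sprayed at 10 psi, 0.5 mL, with compound from acetone:methanol (1:1) diluted in water with 0.1% tween 80. Held at 25±1 C, 60±5% RH; survivors counted after 48 hrs to give death rates.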

Diamond back moth = assay: insecticidal activity against diamond back moth, airbrush spray; format: in vivo
Procedure, shortened: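 Airbrush leaf-disc spray test: both faces of 2 cm cabbage discs received 0.5 ml of test solution at 0.7 kg/cm^2. Solutions were made in acetone:methanol (1:1) and brought to concentration with 0.1% Tween 80 in water. Ten second-instar larvae per disc, triplicates, were held at 25° C and 60˜70% R.H., with mortality recorded at 72 hrs.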

cucumber downy mildew = assay: protectant activity in vivo against cucumber downy mildew
carmine spider mite = assay: bioactivity test against carmine spider mite, airbrush spray; format: in vivo
Procedure, shortened: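 Broadbean seedlings infested with adult mites were sprayed with compound (acetone/methanol stock diluted in 0.1% Tween 80 water) by airbrush at 0.7 kg/cm^2, 0.5 ml. Three replicates were run. Mortality was scored after 72 hrs.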

wheat powdery mildew = assay: protectant activity in vivo against wheat powdery mildew
armyworm = assay: bioactivity test against armyworm, airbrush spray; format: in vivo
corn rust = assay: protectant activity in vivo against corn rust; settings: Zea mays, 168 h
[2] = 10 ppm, death rate after 48 hrs
[3] = 100 ppm, death rate after 48 hrs
[4] = 600 ppm, death rate after 48 hrs
[5] = 100 ppm, mortality after 72 hrs
[6] = 600 ppm, mortality after 72 hrs

CCc1ncnc(NCCc2ccc(Oc3ccc(C#N)cn3)cc2)c1Cl [Compound I-255]
control (test results against green peach aphid) [1, 2]: 100% | control (test results against green peach aphid) [1, 3]: 100% | control (test results against green peach aphid) [1, 4]: 100% | Insecticidal activity against diamond back moth (%) (Diamond back moth; 10 mg/L): 43% | Insecticidal activity against diamond back moth (%) (Diamond back moth; 100 mg/L): 100% | Insecticidal activity against diamond back moth (%) (Diamond back moth; 600 mg/L): 100% | control (test results against diamond back moth) (Diamond back moth; [5]): 100% | control (test results against diamond back moth) (Diamond back moth; [6]): 100% | protectant activity against cucumber downy mildew in vivo (cucumber downy mildew; 25 ppm): 100% | protectant activity against cucumber downy mildew in vivo (cucumber downy mildew; 50 ppm): 100% | protectant activity against cucumber downy mildew in vivo (cucumber downy mildew; 100 ppm): 100% | protectant activity against cucumber downy mildew in vivo (cucumber downy mildew; 400 ppm): 100% | Insecticidal activity against carmine spider mite (% ) (carmine spider mite; 2.5 mg/L): 72% | Insecticidal activity against carmine spider mite (% ) (carmine spider mite; 5 mg/L): 84% | Insecticidal activity against carmine spider mite (% ) (carmine spider mite; 10 mg/L, contrastive test): 85% | Insecticidal activity against carmine spider mite (% ) (carmine spider mite; 100 mg/L, contrastive test): 100% | Insecticidal activity against carmine spider mite (% ) (carmine spider mite; 600 mg/L, contrastive test): 100% | control against carmine spider mite (carmine spider mite; [5]): 100% | control against carmine spider mite (carmine spider mite; [6]): 100% | protectant activity against wheat powdery mildew in vivo (wheat powdery mildew; 25 ppm): 100% | protectant activity against wheat powdery mildew in vivo (wheat powdery mildew; 100 ppm): 100% | protectant activity against wheat powdery mildew in vivo (wheat powdery mildew; 400 ppm): 100% | Insecticidal activity against armyworm (%) (armyworm; 10 mg/L): 25% | Insecticidal activity against armyworm (%) (armyworm; 100 mg/L): 100% | Insecticidal activity against armyworm (%) (armyworm; 600 mg/L): 100% | control (test results against armyworm) (armyworm; 100 ppm, mortality after 72 h): 100% | control (test results against armyworm) (armyworm; 600 ppm, mortality after 72 h): 100%

FC(F)c1ncnc(NCCc2ccc(Oc3ccc(Cl)cc3)cc2)c1Cl [II-8915]
pest or weed control at 1.25 µg/mL ([1]; Myzus persicae, foliar, 48 h, 1.25 mg/L, contrastive test, read-out: Insecticidal activity against peach aphid (%)): 100% | pest or weed control at 2.5 µg/mL ([1]; Myzus persicae, foliar, 48 h, 2.5 mg/L, contrastive test, read-out: Insecticidal activity against peach aphid (%)): 100% | pest or weed control at 5 µg/mL ([1]; Myzus persicae, foliar, 48 h, 5 mg/L, contrastive test, read-out: Insecticidal activity against peach aphid (%)): 100% | pest or weed control at 10 µg/mL ([1]; Myzus persicae, foliar, 48 h, 10 mg/L, contrastive test, read-out: Insecticidal activity against peach aphid (%)): 100% | pest or weed control at 100 µg/mL ([1]; Myzus persicae, foliar, 48 h, 100 mg/L, contrastive test, read-out: Insecticidal activity against peach aphid (%)): 100% | pest or weed control at 600 µg/mL ([1]; Myzus persicae, foliar, 48 h, 600 mg/L, contrastive test, read-out: Insecticidal activity against peach aphid (%)): 100% | pest or weed control at 2.5 ppm ([1]; Myzus persicae, foliar, 48 h, 2.5 ppm, death rate after 48 hrs): 100% | pest or weed control at 5 ppm ([1]; Myzus persicae, foliar, 48 h, 5 ppm, death rate after 48 hrs): 100% | pest or weed control at 10 ppm ([1]; Myzus persicae, foliar, 48 h, 10 ppm, death rate after 48 hrs): 100% | pest or weed control at 100 ppm ([1]; Myzus persicae, foliar, 48 h, 100 ppm, death rate after 48 hrs): 100% | pest or weed control at 600 ppm ([1]; Myzus persicae, foliar, 48 h, 600 ppm, death rate after 48 hrs): 100% | pest or weed control at 600 ppm (Diamond back moth; 72 h, 600 ppm, mortality after 72 hrs, read-out: control (test results against diamond back moth)): 100% | pest or weed control at 0.4 µg/mL (corn rust; read-out: control effect against corn rust (%), 0.4 mg/L, protectant activity): 30% | pest or weed control at 1.6 µg/mL (corn rust; read-out: control effect against corn rust (%), 1.6 mg/L, protectant activity): 80% | pest or weed control at 6.25 µg/mL (corn rust; read-out: control effect against corn rust (%), 6.25 mg/L, protectant activity): 100% | pest or weed control at 25 µg/mL (corn rust; read-out: control effect against corn rust (%), 25 mg/L, protectant activity): 100% | pest or weed control at 100 µg/mL (corn rust; read-out: control effect against corn rust (%), 100 mg/L, protectant activity): 100% | pest or weed control at 400 µg/mL (corn rust; read-out: control effect against corn rust (%), 400 mg/L, protectant activity): 100% | pest or weed control at 6.25 ppm (corn rust; read-out: protectant activity against corn rust in vivo, 6.25 ppm): 100% | pest or weed control at 25 ppm (corn rust; read-out: protectant activity against corn rust in vivo, 25 ppm): 100% | pest or weed control at 100 ppm (corn rust; read-out: protectant activity against corn rust in vivo, 100 ppm): 100% | pest or weed control at 400 ppm (corn rust; read-out: protectant activity against corn rust in vivo, 400 ppm): 100% | pest or weed control at 3.125 µg/mL (cucumber downy mildew; Cucumis sativus, 168 h, read-out: control effect against cucumber downy mildew (%), 3.125 mg/L, protectant activity): 20% | pest or weed control at 6.25 µg/mL (cucumber downy mildew; Cucumis sativus, 168 h, read-out: control effect against cucumber downy mildew (%), 6.25 mg/L, protectant activity): 90% | pest or weed control at 12.5 µg/mL (cucumber downy mildew; Cucumis sativus, 168 h, read-out: control effect against cucumber downy mildew (%), 12.5 mg/L, protectant activity): 95% | pest or weed control at 25 µg/mL (cucumber downy mildew; Cucumis sativus, 168 h, read-out: control effect against cucumber downy mildew (%), 25 mg/L, protectant activity): 99% | pest or weed control at 50 µg/mL (cucumber downy mildew; Cucumis sativus, 168 h, read-out: control effect against cucumber downy mildew (%), 50 mg/L, protectant activity): 100% | pest or weed control at 100 µg/mL (cucumber downy mildew; Cucumis sativus, 168 h, read-out: control effect against cucumber downy mildew (%), 100 mg/L, protectant activity): 100% | pest or weed control at 400 µg/mL (cucumber downy mildew; Cucumis sativus, 168 h, read-out: control effect against cucumber downy mildew (%), 400 mg/L, protectant activity): 100% | pest or weed control at 6.25 ppm (cucumber downy mildew; Cucumis sativus, 168 h, read-out: protectant activity against cucumber downy mildew in vivo, 6.25 ppm): 80 to 99% | pest or weed control at 12.5 ppm (cucumber downy mildew; Cucumis sativus, 168 h, read-out: protectant activity against cucumber downy mildew in vivo, 12.5 ppm): 80 to 99% | pest or weed control at 25 ppm (cucumber downy mildew; Cucumis sativus, 168 h, read-out: protectant activity against cucumber downy mildew in vivo, 25 ppm): 80 to 99% | pest or weed control at 50 ppm (cucumber downy mildew; Cucumis sativus, 168 h, read-out: protectant activity against cucumber downy mildew in vivo, 50 ppm): 80 to 99% | pest or weed control at 100 ppm (cucumber downy mildew; Cucumis sativus, 168 h, read-out: protectant activity against cucumber downy mildew in vivo, 100 ppm): 100% | pest or weed control at 400 ppm (cucumber downy mildew; Cucumis sativus, 168 h, read-out: protectant activity against cucumber downy mildew in vivo, 400 ppm): 100% | pest or weed control at 100 ppm (carmine spider mite; Tetranychus cinnabarinus, 72 h, 100 ppm, mortality after 72 hrs): 100% | pest or weed control at 600 ppm (carmine spider mite; Tetranychus cinnabarinus, 72 h, 600 ppm, mortality after 72 hrs): 100% | pest or weed control at 10 µg/mL (armyworm; 72 h, 10 mg/L, read-out: Insecticidal activity against armyworm (%)): 44% | pest or weed control at 100 µg/mL (armyworm; 72 h, 100 mg/L, read-out: Insecticidal activity against armyworm (%)): 95% | pest or weed control at 600 µg/mL (armyworm; 72 h, 600 mg/L, read-out: Insecticidal activity against armyworm (%)): 100% | pest or weed control at 100 ppm (armyworm; 72 h, 100 ppm, mortality after 72 h): 80 to 99% | pest or weed control at 600 ppm (armyworm; 72 h, 600 ppm, mortality after 72 h): 100%

Cc1ncnc(NCCc2ccc(Oc3ccc(C(F)(F)F)cc3)nc2)c1Cl [III-22]
Insecticidal activity against peach aphid (%) ([1]; 1.25 mg/L, contrastive test): 67% | Insecticidal activity against peach aphid (%) ([1]; 2.5 mg/L, contrastive test): 98% | Insecticidal activity against peach aphid (%) ([1]; 5 mg/L, contrastive test): 100% | Insecticidal activity against peach aphid (%) ([1]; 10 mg/L, contrastive test): 100% | Insecticidal activity against peach aphid (%) ([1]; 100 mg/L, contrastive test): 100% | Insecticidal activity against peach aphid (%) ([1]; 600 mg/L, contrastive test): 100% | control (test results against green peach aphid) [1, 2]: 100% | control (test results against green peach aphid) [1, 3]: 100% | control (test results against green peach aphid) [1, 4]: 100% | control (test results against diamond back moth) (Diamond back moth; [6]): 100% | control effect against cucumber downy mildew (%) (cucumber downy mildew; 6.25 mg/L, protectant activity): 100% | control effect against cucumber downy mildew (%) (cucumber downy mildew; 12.5 mg/L, protectant activity): 100% | control effect against cucumber downy mildew (%) (cucumber downy mildew; 25 mg/L, protectant activity): 100% | control effect against cucumber downy mildew (%) (cucumber downy mildew; 50 mg/L, protectant activity): 100% | control effect against cucumber downy mildew (%) (cucumber downy mildew; 100 mg/L, protectant activity): 100% | control effect against cucumber downy mildew (%) (cucumber downy mildew; 400 mg/L, protectant activity): 100% | protectant activity against cucumber downy mildew in vivo (cucumber downy mildew; 6.25 ppm): 100% | protectant activity against cucumber downy mildew in vivo (cucumber downy mildew; 12.5 ppm): 100% | protectant activity against cucumber downy mildew in vivo (cucumber downy mildew; 25 ppm): 100% | protectant activity against cucumber downy mildew in vivo (cucumber downy mildew; 50 ppm): 100% | protectant activity against cucumber downy mildew in vivo (cucumber downy mildew; 100 ppm): 100% | protectant activity against cucumber downy mildew in vivo (cucumber downy mildew; 400 ppm): 100% | Insecticidal activity against carmine spider mite (% ) (carmine spider mite; 10 mg/L, contrastive test): 72% | Insecticidal activity against carmine spider mite (% ) (carmine spider mite; 100 mg/L, contrastive test): 100% | Insecticidal activity against carmine spider mite (% ) (carmine spider mite; 600 mg/L, contrastive test): 100% | control against carmine spider mite (carmine spider mite; [5]): 100% | control against carmine spider mite (carmine spider mite; [6]): 100% | protectant activity against wheat powdery mildew in vivo (wheat powdery mildew; 400 ppm): 100% | Insecticidal activity against armyworm (%) (armyworm; 10 mg/L): 71% | Insecticidal activity against armyworm (%) (armyworm; 100 mg/L): 100% | Insecticidal activity against armyworm (%) (armyworm; 600 mg/L): 100% | control (test results against armyworm) (armyworm; 100 ppm, mortality after 72 h): 100% | control (test results against armyworm) (armyworm; 600 ppm, mortality after 72 h): 100%
